What was measured:
C. acnes strain C3 = assay: Minimum inhibitory concentration (MIC) / compatibility of cosmetic excipients; format: cell-based, Cutibacterium acnes; conditions: % w/vol, incubated anaerobically 3 days at 37° C, growth scored visually
Method: (§1) In microbiology, the MIC is the lowest concentration of a chemical which prevents visible growth of bacterium. The resulted MIC value depends both on the microorganism and the test compound. The MIC is determined by preparing concentrations series of the test compound in vitro, incubating the solutions with the separate batches of cultured bacteria, and measuring the results using agar dilution or broth microdilution. For the experiments with C. acnes strains C3 and K8, media comprising yeast extract soy peptone and dextrose were used. The MIC is determined by turbidity.
(§2) A total of 125 cosmetic excipients were tested for their compatibility with C. acnes strains C3 and K8. Hydrophilic compounds were tested in a 96-well plate liquid broth format, poorly soluble compounds were pre-dissolved in DMSO before dilution in liquid broth and hydrophobic or solid compounds were tested in an agar well diffusion test assay. The different dilutions of the test excipients in media were prepared in Falcon tubes and then distributed in a deep well plate using a multistepper. Each well received 1.2 ml and was subsequently inoculated with 120 μl of C. acnes bacteria suspension (strain C3 and K8). From the deep well plate 200 μl were transferred in each well of a clear 96 well replicate plate. The leftover was discarded. The plates were then incubated anaerobically for 3 days at 37° C. Following incubation, the test plates were visually examined and wells were scored for growth or complete growth inhibition to define the minimum inhibitory concentration.
(§3) These excipients are listed in the below table with their compatibility values for C. acnes strains C3 and K8. The compatibility values represent the MIC value of the listed ingredients with the tested C. acnes strains. At this concentration [% w/vol] the tested compound starts interfering with the growth of the tested strains. The compounds can be used in formulations at concentrations below this concentration.

C. acnes strain K8 = assay: as above; format: cell-based, Cutibacterium acnes; conditions: % w/vol, incubated anaerobically 3 days at 37° C, growth scored visually
Method: as §1, §2, §3

Compound | COMPATABILITY VALUE C3 [%] (MIC value) (C. acnes strain C3) | COMPATABILITY VALUE K8 [%] (MIC value) (C. acnes strain K8)
O=C(O)CC(O)(CC(=O)O)C(=O)O [citric acid] | 0.33 | 0.08
CC(CO)CO [methylpropanediol] | 4.00 | 4.00
CCCCCCC(O)CO (centres unmarked) [caprylyl glycol] | 0.18 | 0.18
CCO [ethanol] | 3.75 | 3.75
ethylhexyl cocoate | 10.00 | 10.00
tocopherol | 1.50 | 1.50
CC(=O)Oc1c(C)c(C)c2c(c1C)CCC(C)(CCC[C@H](C)CCC[C@H](C)CCCC(C)C)O2 (some centres unmarked) [tocopheryl acetate] | 1.00 | 1.00
